# Test results as given in ChEMBL document CHEMBL1201862, “PubChem BioAssay data set” (2004).
#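 Values below derive from 48-hour exposures of cells grown in 96-well plates, with endpoints linearly interpolated between the two concentrations bracketing the appropriate inhibition level. Here, GI50 denotes the concentration required for 50% inhibition of growth.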 Calls of active or inactive are those of the source. Rule as the data show it: active = GI50 up to about 1.1 µM and inactive = higher.
# How the values were obtained:
# Assay in all cases: DTP human tumour cell line panel, 48 h
# 786-0 = system: 786-0
# A498 = system: A498
# A549 = system: A549
# ACHN = system: ACHN
# CAKI-1 = system: CAKI-1
# CCRF-CEM = system: CCRF-CEM
# COLO 205 = system: COLO 205
# DU-145 = system: DU-145
# EKVX = system: EKVX
# HCT-116 = system: HCT-116
# HCT-15 = system: HCT-15
# HL-60 = system: HL-60
# HOP-92 = system: HOP-92
# HT-29 = system: HT-29
# Hs-578T = system: Hs-578T
# IGROV-1 = system: IGROV-1
# K562 = system: K562
# KM12 = system: KM12
# LOX IMVI = system: LOX IMVI
# M14 = system: M14
# MDA-MB-231 = system: MDA-MB-231
# MDA-MB-435 = system: MDA-MB-435
# MOLT-4 = system: MOLT-4
# Malme-3M = system: Malme-3M
# NCI-H226 = system: NCI-H226
# NCI-H23 = system: NCI-H23
# NCI-H460 = system: NCI-H460
# NCI-H522 = system: NCI-H522
# NCI/ADR-RES = system: NCI/ADR-RES
# OVCAR-3 = system: OVCAR-3
# OVCAR-4 = system: OVCAR-4
# OVCAR-5 = system: OVCAR-5
# OVCAR-8 = system: OVCAR-8
# PC-3 = system: PC-3
# RPMI-8226 = system: RPMI-8226
# RXF 393 = system: RXF 393
# SF-268 = system: SF-268
# SF-295 = system: SF-295
# SF-539 = system: SF-539
# SK-MEL-28 = system: SK-MEL-28
# SK-MEL-5 = system: SK-MEL-5
# SK-OV-3 = system: SK-OV-3
# SN12C = system: SN12C
# SNB-19 = system: SNB-19
# SR = system: SR
# SW-620 = system: SW-620
# T47D = system: T47D
# TK-10 = system: TK-10
# U-251 = system: U-251
# UACC-257 = system: UACC-257
# UACC-62 = system: UACC-62
# UO-31 = system: UO-31
# HCC 2998 = system: HCC 2998
# HOP-62 = system: HOP-62
# MCF7 = system: MCF7
# MDA-N = system: MDA-N
# SNB-75 = system: SNB-75
smiles,measurement,setting,value
O=C1C(=Cc2cccc(O)c2)N=C(c2ccccc2)N1n1c(-c2ccccc2)nc2ccccc2c1=O,GI50,786-0,39.8 µM (inactive)
same,GI50,A498,34.7 µM (inactive)
same,GI50,A549,36.9 µM (inactive)
same,GI50,ACHN,21.6 µM (inactive)
same,GI50,CAKI-1,24.7 µM (inactive)
same,GI50,CCRF-CEM,24.3 µM (inactive)
same,GI50,COLO 205,31.4 µM (inactive)
same,GI50,DU-145,27.7 µM (inactive)
same,GI50,EKVX,34.9 µM (inactive)
same,GI50,HCT-116,17.5 µM (inactive)
same,GI50,HCT-15,34.7 µM
same,GI50,HL-60,25.2 µM (inactive)
same,GI50,HOP-92,15.5 µM (inactive)
same,GI50,HT-29,32.6 µM (inactive)
same,GI50,Hs-578T,14.3 µM (inactive)
same,GI50,IGROV-1,20.7 µM (inactive)
same,GI50,K562,37.3 µM (inactive)
same,GI50,KM12,24.9 µM (inactive)
same,GI50,LOX IMVI,23.4 µM (inactive)
same,GI50,M14,37.2 µM (inactive)
same,GI50,MDA-MB-231,36.9 µM (inactive)
same,GI50,MDA-MB-435,35.6 µM (inactive)
same,GI50,MOLT-4,15.9 µM (inactive)
same,GI50,Malme-3M,27.7 µM (inactive)
same,GI50,NCI-H226,0.48 µM (active)
same,GI50,NCI-H23,22.1 µM (inactive)
same,GI50,NCI-H460,23.6 µM (inactive)
same,GI50,NCI-H522,17.1 µM (inactive)
same,GI50,NCI/ADR-RES,68.5 µM (inactive)
same,GI50,OVCAR-3,22.4 µM (inactive)
same,GI50,OVCAR-4,29.6 µM (inactive)
same,GI50,OVCAR-5,37.1 µM (inactive)
same,GI50,OVCAR-8,31.4 µM (inactive)
same,GI50,PC-3,23.8 µM (inactive)
same,GI50,RPMI-8226,17.4 µM (inactive)
same,GI50,RXF 393,8.28 µM (inactive)
same,GI50,SF-268,25 µM (inactive)
same,GI50,SF-295,24 µM (inactive)
same,GI50,SF-539,17.9 µM (inactive)
same,GI50,SK-MEL-28,25.2 µM (inactive)
same,GI50,SK-MEL-5,23.7 µM (inactive)
same,GI50,SK-OV-3,33.3 µM (inactive)
same,GI50,SN12C,34.1 µM (inactive)
same,GI50,SNB-19,25.9 µM (inactive)
same,GI50,SR,16.4 µM (inactive)
same,GI50,SW-620,42.3 µM (inactive)
same,GI50,T47D,34.9 µM (inactive)
same,GI50,TK-10,48.3 µM (inactive)
same,GI50,U-251,35.4 µM (inactive)
same,GI50,UACC-257,29 µM (inactive)
same,GI50,UACC-62,19.7 µM (inactive)
same,GI50,UO-31,27.2 µM (inactive)
CC(O[Si](c1ccccc1)(c1ccccc1)C(C)(C)C)[C@H](NC(=O)OC(C)(C)C)C(=O)O[Si](c1ccccc1)(c1ccccc1)C(C)(C)C (stereo not given in full),GI50,786-0,13.2 µM (inactive)
same,GI50,A498,> 10 µM (inactive)
same,GI50,A549,11 µM (inactive)
same,GI50,ACHN,10.8 µM (inactive)
same,GI50,CAKI-1,12.4 µM (inactive)
same,GI50,CCRF-CEM,20 µM (inactive)
same,GI50,COLO 205,13.2 µM (inactive)
same,GI50,DU-145,12.6 µM (inactive)
same,GI50,EKVX,11.9 µM (inactive)
same,GI50,HCC 2998,15.9 µM (inactive)
same,GI50,HCT-116,11.2 µM (inactive)
same,GI50,HCT-15,5.24 µM
same,GI50,HL-60,14.4 µM (inactive)
same,GI50,HOP-62,18.2 µM (inactive)
same,GI50,HOP-92,10.9 µM (inactive)
same,GI50,HT-29,11.7 µM (inactive)
same,GI50,Hs-578T,19.2 µM (inactive)
same,GI50,IGROV-1,14.9 µM (inactive)
same,GI50,K562,13.2 µM (inactive)
same,GI50,KM12,9.91 µM (inactive)
same,GI50,M14,15.7 µM (inactive)
same,GI50,MCF7,17.9 µM (inactive)
same,GI50,MDA-N,18.8 µM (inactive)
same,GI50,MOLT-4,10.6 µM (inactive)
same,GI50,Malme-3M,16.5 µM (inactive)
same,GI50,NCI-H23,11.7 µM (inactive)
same,GI50,NCI-H460,11.5 µM (inactive)
same,GI50,NCI/ADR-RES,14.4 µM (inactive)
same,GI50,OVCAR-4,1.46 µM (inactive)
same,GI50,OVCAR-5,15.9 µM (inactive)
same,GI50,OVCAR-8,15.6 µM (inactive)
same,GI50,PC-3,8.38 µM (inactive)
same,GI50,RPMI-8226,10.9 µM (inactive)
same,GI50,RXF 393,13 µM (inactive)
same,GI50,SF-268,14.3 µM (inactive)
same,GI50,SF-295,8.04 µM (inactive)
same,GI50,SK-MEL-28,14.3 µM (inactive)
same,GI50,SK-MEL-5,15.7 µM (inactive)
same,GI50,SK-OV-3,16.3 µM (inactive)
same,GI50,SNB-19,15.5 µM (inactive)
same,GI50,SNB-75,15.4 µM (inactive)
same,GI50,SR,12.3 µM (inactive)
same,GI50,SW-620,16.1 µM (inactive)
same,GI50,T47D,5.41 µM (inactive)
same,GI50,TK-10,16.9 µM (inactive)
same,GI50,U-251,14.4 µM (inactive)
same,GI50,UACC-257,14.9 µM (inactive)
same,GI50,UO-31,13.2 µM (inactive)
